Experiments:
Type in all cases: cell-based, human
19-9-11 iPSCs = test: Cardiac directed differentiation via small molecules on Matrigel, cTnT/MF20 flow cytometry; settings: 12 μM CH treatment alone, after 15 days
Method: (§1) cardiac directed differentiation via small molecules: Cells were dissociated and plated as described in the Activin/BMP4 protocol. When hPS cells maintained on Matrigel® or Synthemax plates achieved confluence, cells were treated with CH in RPMI/B27-insulin for 24 hr (day 0 to day 1). The medium was changed to RPMI/B27-insulin, followed by 2 μg/ml dox treatment at different times between day 1 and day 5 for transgenic cell lines. For genetically unmodified lines, 5 μM IWP2 (Tocris) or IWP4 (Stemgent) was added at day 3 and removed during the day 5 medium change. Cells were maintained in the RPMI/B27 starting from day 7, with the medium changed every 3 days.
(§2) Flow Cytometry: Cells were dissociated into single cells and then fixed with 1% paraformaldehyde for 20 min at room temperature and stained with primary and secondary antibodies in PBS plus 0.1% Triton X-100 and 0.5% BSA. For the cell proliferation assay, a 17-hour pulse of BrdU was performed to identify dividing cardiomyocytes (Zhang et al., Circ. Res. 104, e30-41 (2009)). Data were collected on a FACSCaliber flow cytometer (Beckton Dickinson) and analyzed using FlowJo.
While shRNA inhibition of β-catenin provides specific and facile temporal regulation of canonical Wnt signaling, this method requires genetic modification of the hPS cell line which limits its potential clinical utility. The inventors next used the mechanistic insight these modified lines provided regarding the sufficiency of canonical Wnt signaling in cardiomyogenesis to develop a completely defined, growth factor free method of efficiently generating cardiomyocytes from unmodified hPS cell lines using small molecules. First, 19-9-11 iPSCs were maintained in mTeSR1 on Matrigel® for five days, and then the medium was switched to RPMI/B27-insulin containing 12 μM CH. IWP4 and IWP2, which prevent palmitylation of Wnt proteins by porcupine thereby blocking Wnt protein secretion and activity (Chen et al., Nat. Chem. Biol. 5:100-107 (2009)), were used to inhibit Wnt signaling. […] Similar to results obtained with the 19-9-11 ishcat-1 cell line, CH treatment of 19-9-11 cells alone only generated 16% cTNT+ or MF20+ cells after 15 days, while adding 5 μM IWP4 or IWP2 at day 3 increased this to 87% cTNT+ or MF20+ cells. […] In order to achieve fully defined culture conditions, Matrigel® was replaced with a defined peptide acrylate surface (Synthemax) during both hPS cell expansion and differentiation. […] Thus, optimization of canonical WNT signaling via stage-specific addition of small molecule agonists and antagonists produces high yields of functional cardiomyocytes in a completely defined, growth factor free culture system.

[1] = tested on: BMP2, BMP4 and NODAL expression in 19-9-11 ishcat-2 cells; test: RT-PCR of TGFβ pathway genes during CH-induced differentiation; settings: upon 12 μM CH treatment
Method: RT-PCR and Quantitative RT-PCR: Total RNA was prepared with the RNeasy mini kit (QIAGEN) and treated with DNase (QIAGEN). 1 μg RNA was reverse transcribed into cDNA via Oligo (dT) with Superscript III Reverse Transcriptase (Invitrogen). Real-time quantitative PCR was done in triplicate with iQ SYBR Green SuperMix (Bio-Rad). RT-PCR was done with Gotaq Master Mix (Promega) and then subjected to 2% agarose gel electrophoresis. ACTB was used as an endogenous control. To determine whether canonical Wnt signaling requires TGFβ superfamily signaling to induce cardiogenesis, the inventors quantified cTnT+ cell generation in 19-9-11 […]-2 cells when Activin A and BMP4 signaling antagonists were presented during the first 24 hr of cardiomyocyte induction with 12 μM CH. All samples were treated with dox at 48 hours. […] To further investigate the role of TGFβ superfamily signaling in Wnt pathway-mediated cardiogenesis the inventors assessed Smad1/5 and Smad2 phosphorylation, downstream of BMP4 and Activin A signaling respectively. As expected, substantial Smad1/5 and Smad2 phosphorylation was detected in cells that had been treated with Activin A and BMP4 (FIGS. 9B and 10A).

[2] = tested on: 19-9-11 and IMR90C4 iPSCs; test: Cardiac directed differentiation via small molecules on Synthemax plates, cTnT/MF20 flow cytometry; settings: 12 μM CH at day 0 and 5 μM IWP4 at day 3, day 15
Method: as §1, §2
While shRNA inhibition of β-catenin provides specific and facile temporal regulation of canonical Wnt signaling, this method requires genetic modification of the hPS cell line which limits its potential clinical utility. […]

[3] = tested on: 19-9-11 shcat-2 and scramble lines; test: Flow cytometry of Oct4 and brachyury in CH-treated 19-9-11 shcat-2 and scramble lines; settings: for cells expressing Oct4: 4 days of CH (12 μM) in mTeSR1
Method: Flow Cytometry: Cells were dissociated into single cells and then fixed with 1% paraformaldehyde for 20 min at room temperature and stained with primary and secondary antibodies in PBS plus 0.1% Triton X-100 and 0.5% BSA. For the cell proliferation assay, a 17-hour pulse of BrdU was performed to identify dividing cardiomyocytes (Zhang et al., Circ. Res. 104, e30-41 (2009)). Data were collected on a FACSCaliber flow cytometer (Beckton Dickinson) and analyzed using FlowJo. To test whether induction of cardiomyocyte differentiation by GSK3 inhibitors requires β-catenin, the inventors treated the shcat-2 and scramble 19-9-11 lines with CH in mTeSR1 medium. While the shcat-2 line maintained an undifferentiated morphology, the scramble line appeared to undergo differentiation (FIG. 2E), similar to non-transduced lines treated with CH (FIGS. 1B and 2B). Induction of differentiation following CH treatment in the scramble control was further indicated by diminished SOX2 and NANOG expression at day 4 (FIG. 3C). […] After 4 days of CH treatment in mTeSR1, the percentage of cells expressing Oct4 decreased to 61% in the scramble line, while 98% of the shcat-2 cells expressed Oct4 (FIG. 3D). […] To better understand early mesoderm induction via GSK3 inhibition, the inventors analyzed expression of the early mesoderm gene T in scramble and shcat-2 19-9-11 lines. As CH concentration increased, the ratio of T expression in scramble to the shcat-2 line increased (FIG. 3E). Less than 2% of shcat-2 cells expressed brachyury upon exposure to different concentrations of CH treatment for 4 days.

## Cc1c[nH]c(-c2cnc(NCCNc3ccc(C#N)cn3)nc2-c2ccc(Cl)cc2Cl)n1 [CH]
19-9-11 iPSCs
  cTNT+ or MF20+ cells: 16%
[1]
  NODAL expression: transient upregulation
[1]; throughout differentiation
  BMP2 and BMP4 gene expression: gradually upregulated
[2]
  cTNT+ or MF20+ cells: approximately 85%
[3]; scramble line, 15 μM CH for 4 days
  brachyury+ cells: 76%
[3]; scramble line
  cells expressing Oct4: 61%
[3]; shcat-2 cells
  cells expressing Oct4: 98%
[3]; shcat-2 cells, different concentrations of CH for 4 days
  cells expressing brachyury: Less than 2%
